Data published in BindingDB's records for doi:10.7270/Q2HM56V2 (The Scripps Research Institute Molecular Screening Center, 2008).

Target: T1, Signal transducer and activator of transcription 1-alpha/beta (Homo sapiens, UniProt P42224)
T1 sequence (P42224 whole entry): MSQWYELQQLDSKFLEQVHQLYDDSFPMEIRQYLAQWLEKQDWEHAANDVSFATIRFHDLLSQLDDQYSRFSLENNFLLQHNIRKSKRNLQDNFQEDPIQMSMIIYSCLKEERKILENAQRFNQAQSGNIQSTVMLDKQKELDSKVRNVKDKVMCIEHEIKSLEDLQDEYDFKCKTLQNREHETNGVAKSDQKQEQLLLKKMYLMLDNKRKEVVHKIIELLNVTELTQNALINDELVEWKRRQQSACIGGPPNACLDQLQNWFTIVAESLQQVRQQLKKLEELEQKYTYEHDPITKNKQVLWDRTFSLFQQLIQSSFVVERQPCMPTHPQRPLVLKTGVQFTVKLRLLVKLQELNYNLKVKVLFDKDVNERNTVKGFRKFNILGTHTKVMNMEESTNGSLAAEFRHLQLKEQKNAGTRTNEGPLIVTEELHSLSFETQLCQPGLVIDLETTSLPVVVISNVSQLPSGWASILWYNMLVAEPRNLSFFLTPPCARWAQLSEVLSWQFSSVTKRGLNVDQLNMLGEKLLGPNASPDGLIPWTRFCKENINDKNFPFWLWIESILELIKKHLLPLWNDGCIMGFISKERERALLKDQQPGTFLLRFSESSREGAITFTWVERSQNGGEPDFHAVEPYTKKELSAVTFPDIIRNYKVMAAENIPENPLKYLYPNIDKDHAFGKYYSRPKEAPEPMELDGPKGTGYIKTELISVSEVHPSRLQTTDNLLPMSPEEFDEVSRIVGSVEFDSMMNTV
Experiment: PubChem AID 1406

Q: With `Cc1[nH]n(-c2ccccc2)c(=O)c1C=C1C(=O)NC(=O)NC1=O` as the compound, how does the EC50 read?
A: > 55.7 µM
